Test results taken from ChEMBL document CHEMBL3870348, “Discovery of a new isomannide-based peptidomimetic synthetized by Ugi multicomponent reaction as human tissue kallikrein 1 inhibitor” (Bioorg Med Chem Lett, 2017).
The source made the active and inactive calls. The rule behind the calls is not given here.

Tests used:
Kallikrein-1 [1] = molecular target: T1, Kallikrein-1 (Homo sapiens, UniProt P06870); test: Inhibition of recombinant human KLK1 expressed in baculovirus/insect cell expression system using Abz-KLRSSKQ-EDDnp peptide as substrate preincubated for 5 mins followed by substrate addition by FRET assay
Target sequence in this assay (P06870 whole entry): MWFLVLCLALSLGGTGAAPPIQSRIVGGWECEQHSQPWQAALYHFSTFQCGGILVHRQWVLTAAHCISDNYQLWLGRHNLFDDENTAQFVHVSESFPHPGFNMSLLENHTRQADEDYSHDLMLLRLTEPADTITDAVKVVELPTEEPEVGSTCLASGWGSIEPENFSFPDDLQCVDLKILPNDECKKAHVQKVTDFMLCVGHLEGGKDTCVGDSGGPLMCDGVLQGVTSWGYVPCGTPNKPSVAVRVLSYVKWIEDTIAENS

Kallikrein-7 [2] = molecular target: T2, Kallikrein-7 (Homo sapiens, UniProt P49862); test: Inhibition of recombinant human KLK7 expressed in baculovirus/insect cell expression system using Abz-KLYSSKQ-EDDnp peptide as substrate preincubated for 5 mins followed by substrate addition by FRET assay
Target sequence in this assay (P49862 whole entry): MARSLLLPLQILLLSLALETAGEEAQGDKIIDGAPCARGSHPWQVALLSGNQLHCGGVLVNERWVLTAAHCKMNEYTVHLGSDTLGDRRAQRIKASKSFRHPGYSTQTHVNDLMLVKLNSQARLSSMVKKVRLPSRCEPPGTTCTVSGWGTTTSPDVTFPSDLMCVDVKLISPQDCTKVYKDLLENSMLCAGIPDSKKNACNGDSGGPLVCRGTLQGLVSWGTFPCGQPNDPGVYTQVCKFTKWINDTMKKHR

Kallikrein-1 [3] = molecular target: T1, Kallikrein-1; test: Inhibition of recombinant human KLK1 expressed in baculovirus/insect cell expression system at 100 uM using Abz-KLRSSKQ-EDDnp peptide as substrate preincubated for 5 mins followed by substrate addition by FRET assay
Target sequence in this assay (P06870 25-262 limits assumed): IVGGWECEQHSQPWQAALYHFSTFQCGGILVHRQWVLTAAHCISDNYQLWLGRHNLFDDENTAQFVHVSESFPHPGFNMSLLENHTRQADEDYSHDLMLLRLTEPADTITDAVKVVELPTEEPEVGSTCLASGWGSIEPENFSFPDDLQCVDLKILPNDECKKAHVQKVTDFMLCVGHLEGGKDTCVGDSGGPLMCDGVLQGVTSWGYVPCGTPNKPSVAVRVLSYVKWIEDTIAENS

Kallikrein-7 [4] = molecular target: T2, Kallikrein-7; test: Inhibition of recombinant human KLK7 expressed in baculovirus/insect cell expression system at 100 uM using Abz-KLYSSKQ-EDDnp peptide as substrate preincubated for 5 mins followed by substrate addition by FRET assay
Target sequence in this assay (P49862 30-253 limits assumed): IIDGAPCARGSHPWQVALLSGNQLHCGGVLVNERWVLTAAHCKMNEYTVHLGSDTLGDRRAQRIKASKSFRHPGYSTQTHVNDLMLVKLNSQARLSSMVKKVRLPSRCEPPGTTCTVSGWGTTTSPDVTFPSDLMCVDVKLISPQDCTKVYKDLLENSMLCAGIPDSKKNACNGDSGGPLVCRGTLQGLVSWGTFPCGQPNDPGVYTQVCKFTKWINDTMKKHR

Kallikrein-1 [5] = molecular target: T1, Kallikrein-1; test: Reversible competitive inhibition of recombinant human KLK1 expressed in baculovirus/insect cell expression system using Abz-KLRSSKQ-EDDnp peptide as substrate at 2 to 8 uM by Lineweaver-Burk plot analysis
Target sequence in this assay (P06870 25-262 limits assumed): as the sequence (P06870 25-262 limits assumed) above

Kallikrein-1 [6] = molecular target: T1, Kallikrein-1; test: Competitive inhibition of recombinant human KLK1 expressed in baculovirus/insect cell expression system using Abz-KLRSSKQ-EDDnp peptide as substrate by Dixon plot analysis
Target sequence in this assay (P06870 whole entry): as the sequence (P06870 whole entry) above

Structure (SMILES)	IC50 (Kallikrein-1 [1])	IC50 (Kallikrein-7 [2])	inhibition (Kallikrein-1 [3])	inhibition (Kallikrein-7 [4])	inhibition (Kallikrein-1 [5])	Ki (Kallikrein-1 [6])
CC(C)(C(=O)NC1CCCCC1)N(C(=O)Cc1ccc(O)cc1)[C@H]1CO[C@H]2[C@@H]1OC[C@@H]2N(C(=O)Cc1ccc(O)cc1)C(C)(C)C(=O)NC1CCCCC1	12.6 µM	133 µM	Active	Active		
CC(C)(C(=O)NC1CCCCC1)N(C(=O)c1ccccc1)[C@H]1CO[C@H]2[C@@H]1OC[C@H]2OCc1ccccc1	400 µM	572 µM	Active	Active		
CC(C)(C(=O)NC1CCCCC1)N(C(=O)Cc1ccc(F)cc1)[C@H]1CO[C@H]2[C@@H]1OC[C@H]2OCc1ccccc1	221 µM	185 µM	Active	Active		

Further compounds by falling IC50 (Kallikrein-1 [1]), results first:

IC50 (Kallikrein-1 [1])	IC50 (Kallikrein-7 [2])	inhibition (Kallikrein-1 [3])	inhibition (Kallikrein-7 [4])	inhibition (Kallikrein-1 [5])	Ki (Kallikrein-1 [6])	Structure (SMILES)
125 µM	272 µM	Active	Active			COc1ccc(CC(=O)N([C@H]2CO[C@H]3[C@@H]2OC[C@H]3OCc2ccccc2)C(C)(C)C(=O)NC2CCCCC2)cc1
4 µM	249 µM	Active	Active	Active	3.1 µM	CC(C)(C(=O)NC1CCCCC1)N(C(=O)Cc1ccc(O)cc1)[C@H]1CO[C@H]2[C@@H]1OC[C@H]2OCc1ccccc1
